Assay results: patent publication US20220050096A1, “ANALYTE-SENSITIVE PROBES AND CONTACT LENS FOR DIAGNOSIS OF OCULAR PATHOLOGIES” (University Of Maryland, Baltimore, priority 2020, published 2022)

Assay: Sodium-dependent intensity decays of SG in 20 mM MOPS buffer, 8 mM KCl
Assay type: physicochemical
Parameters: key to α1 / α2 / α3 / f1 / f2 / f3: fractional amplitudes (α) and intensity fractions (f); Σαi=1.0, Σfi=1.0
Method: Fluorescence Spectroscopic Measurements. Fluorescence intensities and intensity decays were measured using a Varian™ Eclipse 4 spectrofluorometer and a FluoTime300 instrument from PicoQuant™ (Berlin, Germany) and analyzed with the EasyTau™ software. The excitation source was a 473 nm laser diode with a repetition rate of 40 MHZ and a pulse width less than 100 ps. In other embodiments, the excitation source for SG-PL was at 495 nm from a Solea™ supercontinuum laser (PicoQuant™, Germany) and a 375 nm laser diode (PDL 375, PicoQuant™), a repetition rate of 40 MHz, and a pulse width less than 100 ps. Some intensity and lifetime measurements for SG-PL (as indicated) were performed using Alba V confocal fluorescence lifetime microscopy, FLIM (ISS, Urbana, Ill.), with excitation source of a 473 nm laser diode with a repetition rate of 40 MHz and a pulse width near 250 ps.
Intensity decays were measured at the emission maximum with the band of 10 to 20 nm, analyzed in terms of the multi-exponential model:
I(t)=Σαi exp(−t/ti) (equation 1)
where ti are the individual decay times and αi the initial time-zero amplitudes. The mean decay time can be represented in two ways. The average lifetime is given by:
where Σαi=1.0 and Σfi=1.0. The term fi=αi τi is proportional to the fractional contribution of each component to the total intensity decay. The term τi/Σαi τi is the fractional contribution to the steady state emission. Here, we use the amplitude-weighted lifetime given by
which is appropriate when the emission is from a single fluorophore with a changing quantum yield. For a single exponential decay, the lifetime is given by τ=1.0/(knr+Γ) and the quantum yield is given by Q=Γ/(knr+Γ) where knr is the sum of all non-radiative decay rates and Γ is the radiative decay rate. The value of Γ is determined by the molecular extinction coefficient that remains constant under most conditions. For a single type of fluorophore with a constant value of Γ the normalized αi values represent the molecular fraction of each decay time component. The value of αi and τi were determined by non-linear least squares fitting using PicoQuant™ software.
Three decay time components were required for the intensity decays. Fluorescence anisotropy decays were determined by individual measurements of the polarized intensity decays with corrections for the G-factor. Resolution of multi-exponential decays is not necessary. The average lifetime can be used as a single measurement. […]

[1] = NaCl 30 mM, 20 mM MOPS buffer 8 mM KCl
[2] = NaCl 50 mM, 20 mM MOPS buffer 8 mM KCl
[3] = NaCl 90 mM, 20 mM MOPS buffer 8 mM KCl
[4] = NaCl 150 mM, 20 mM MOPS buffer 8 mM KCl
[5] = NaCl 210 mM, 20 mM MOPS buffer 8 mM KCl

Compound: COc1cc(N2CCOCCOCCN(c3cc(OC)c(NC(=O)c4ccc(-c5c6cc(Cl)c(=O)cc-6oc6cc([O-])c(Cl)cc56)c(C(=O)[O-])c4)cc3OC)CCOCC2)c(OC)cc1NC(=O)c1ccc(-c2c3cc(Cl)c(=O)cc-3oc3cc([O-])c(Cl)cc23)c(C(=O)[O-])c1.C[N+](C)(C)C.C[N+](C)(C)C.C[N+](C)(C)C.C[N+](C)(C)C [SG]
- f1 [1]: 0.068
- f2 [1]: 0.295
- f3 [1]: 0.638
- α1 [1]: 0.255
- α2 [1]: 0.349
- α3 [1]: 0.396
- τ1 [1]: 0.54 ns
- τ2 [1]: 1.72 ns
- τ3 [1]: 3.27 ns
- τf [1]: 2.63 ns
- τα [1]: 2.03 ns
- f1 (NaCl 50 mM, MOPS buffer): 0.081
- f2 (NaCl 50 mM, MOPS buffer): 0.349
- f3 (NaCl 50 mM, MOPS buffer): 0.570
- α1 (NaCl 50 mM, MOPS buffer): 0.259
- α2 (NaCl 50 mM, MOPS buffer): 0.380
- α3 (NaCl 50 mM, MOPS buffer): 0.361
- τ1 (NaCl 50 mM, MOPS buffer): 0.66 ns
- τ2 (NaCl 50 mM, MOPS buffer): 1.95 ns
- τ3 (NaCl 50 mM, MOPS buffer): 3.35 ns
- τf (NaCl 50 mM, MOPS buffer): 2.64 ns
- τα (NaCl 50 mM, MOPS buffer): 2.12 ns
- f1 [2]: 0.081
- f2 [2]: 0.349
- f3 [2]: 0.570
- α1 [2]: 0.259
- α2 [2]: 0.380
- α3 [2]: 0.361
- τ1 [2]: 0.66 ns
- τ2 [2]: 1.95 ns
- τ3 [2]: 3.35 ns
- τf [2]: 2.64 ns
- τα [2]: 2.12 ns
- f1 (NaCl 90 mM, MOPS buffer): 0.074
- f2 (NaCl 90 mM, MOPS buffer): 0.380
- f3 (NaCl 90 mM, MOPS buffer): 0.545
- α1 (NaCl 90 mM, MOPS buffer): 0.242
- α2 (NaCl 90 mM, MOPS buffer): 0.416
- α3 (NaCl 90 mM, MOPS buffer): 0.342
- τ1 (NaCl 90 mM, MOPS buffer): 0.64 ns
- τ2 (NaCl 90 mM, MOPS buffer): 1.93 ns
- τ3 (NaCl 90 mM, MOPS buffer): 3.36 ns
- τf (NaCl 90 mM, MOPS buffer): 2.61 ns
- τα (NaCl 90 mM, MOPS buffer): 2.11 ns
- f1 [3]: 0.074
- f2 [3]: 0.380
- f3 [3]: 0.545
- α1 [3]: 0.242
- α2 [3]: 0.416
- α3 [3]: 0.342
- τ1 [3]: 0.64 ns
- τ2 [3]: 1.93 ns
- τ3 [3]: 3.36 ns
- τf [3]: 2.61 ns
- τα [3]: 2.11 ns
- f1 (NaCl 150 mM, MOPS buffer): 0.116
- f2 (NaCl 150 mM, MOPS buffer): 0.699
- f3 (NaCl 150 mM, MOPS buffer): 0.185
- α1 (NaCl 150 mM, MOPS buffer): 0.305
- α2 (NaCl 150 mM, MOPS buffer): 0.605
- α3 (NaCl 150 mM, MOPS buffer): 0.091
- τ1 (NaCl 150 mM, MOPS buffer): 0.81 ns
- τ2 (NaCl 150 mM, MOPS buffer): 2.48 ns
- τ3 (NaCl 150 mM, MOPS buffer): 4.38 ns
- τf (NaCl 150 mM, MOPS buffer): 2.64 ns
- τα (NaCl 150 mM, MOPS buffer): 2.15 ns
- f1 [4]: 0.116
- f2 [4]: 0.699
- f3 [4]: 0.185
- α1 [4]: 0.305
- α2 [4]: 0.605
- α3 [4]: 0.091
- τ1 [4]: 0.81 ns
- τ2 [4]: 2.48 ns
- τ3 [4]: 4.38 ns
- τf [4]: 2.64 ns
- τα [4]: 2.15 ns
- f1 (NaCl 210 mM, MOPS buffer): 0.074
- f2 (NaCl 210 mM, MOPS buffer): 0.377
- f3 (NaCl 210 mM, MOPS buffer): 0.549
- α1 (NaCl 210 mM, MOPS buffer): 0.224
- α2 (NaCl 210 mM, MOPS buffer): 0.424
- α3 (NaCl 210 mM, MOPS buffer): 0.352
- τ1 (NaCl 210 mM, MOPS buffer): 0.70 ns
- τ2 (NaCl 210 mM, MOPS buffer): 1.88 ns
- τ3 (NaCl 210 mM, MOPS buffer): 3.29 ns
- τf (NaCl 210 mM, MOPS buffer): 2.57 ns
- τα (NaCl 210 mM, MOPS buffer): 2.12 ns
- f1 [5]: 0.074
- f2 [5]: 0.377
- f3 [5]: 0.549
- α1 [5]: 0.224
- α2 [5]: 0.424
- α3 [5]: 0.352
- τ1 [5]: 0.70 ns
- τ2 [5]: 1.88 ns
- τ3 [5]: 3.29 ns
- τf [5]: 2.57 ns
- τα [5]: 2.12 ns
